≈ marks a conversion by molar mass, not a printed value.
conditions: buffer; pH 7.4; 200.0 µM

| solubility kinetic [µg/mL] | Compound |
| --- | --- |
| 36.1 (≈ 128 µM) | Cc1cc(C)c(S(=O)(=O)Nc2nccs2)c(C)c1 |
| > 32.9 | CC(C)(C)NC(=O)c1ccc2c(c1)CCO2 |
| > 47.4 | CN(C)c1ccc(Nc2nc(N)c3ccccc3n2)cc1.Cl |
| 53.5 (≈ 136 µM) | CCOC(=O)c1cn(C2CC2)c2c(F)c(NCCCN(C)C)c(F)cc2c1=O |
| 31.3 (≈ 116 µM) | O=C1CSC(c2ccccc2)N1Cc1ccccc1 (stereo unspecified) |
| 0.4 (≈ 1.25 µM) | Cc1ccc(OCc2ccc(-c3ccccc3)cc2)c([N+](=O)[O-])n1 |
| 0.7 (≈ 2.25 µM) | Cc1cccc(CC2S/C(=N/c3cccc(C)n3)NC2=O)c1 (stereo unspecified) |
| > 42.8 | O=C1CSC(c2cccnc2)N1CCc1ccccn1 (stereo unspecified) |
| 34.3 (≈ 76.8 µM) | Cc1ccc(S(=O)(=O)N2CCC[C@H]2C(=O)OCC(=O)Nc2ccc3c(c2)OCO3)cc1 |
| > 52.1 | COc1ccc(CNC(=O)C(=O)NC2CC(C)(C)NC(C)(C)C2)cc1 |
| 36.1 (≈ 134 µM) | CC(C)(C)c1ccc(NC(=O)c2cc[n+]([O-])cc2)cc1 |
| > 47.2 | O=C(CCc1nc2ccccc2s1)NCc1ccccc1F |
| > 45.9 | CN[C@H]1CC[C@@H](c2ccc(Cl)c(Cl)c2)c2ccccc21 |
| > 41.7 | CC(NC(=O)c1ccc([N+](=O)[O-])o1)C1CC2CCC1C2 (stereo unspecified) |
| 30.9 (≈ 112 µM) | CCOC(=O)N1CCN(CCCc2ccccc2)CC1 |
| 47.6 (≈ 143 µM) | O=C(COc1ccc(Cl)cc1)NCCNC(=O)c1ccccn1 |
| 26.5 (≈ 80.2 µM) | COc1ccc(Nc2nc(N)c([N+](=O)[O-])c(N3CCCC3)n2)cc1 |
| > 44.7 | COC(=O)c1nn(-c2cccc(C(F)(F)F)c2)ccc1=O |
| > 40.4 | CCNc1ccc(S(=O)(=O)N2CCCCC2)cn1 |
| 2.4 (≈ 9.26 µM) | CCOc1cccc(Nc2ccc([N+](=O)[O-])cn2)c1 |

| solubility kinetic [µg/mL] | Compound |
| --- | --- |
| 5.9 (≈ 17.5 µM) | Cc1ccsc1/C=C1/SC(=O)N(CC(=O)N2CCCC2)C1=O |
| 9.6 (≈ 29.8 µM) | COC(=O)c1ccc(C(=O)OC)c(NC(=S)N2CCCC2)c1 |
| > 47 | O=C(O)c1ccc2c(c1)C(=O)N(c1ccc([N+](=O)[O-])cn1)C2=O |
| 16.8 (≈ 61.2 µM) | CC(=O)c1sc(NC(=O)c2cccc(C)c2)nc1C |
| > 59.1 | COc1ccc(Cl)cc1NC(=O)CN(C)CC(=O)NCc1ccc(F)cc1 |
| 49.1 (≈ 142 µM) | COc1ccc(NC(=O)CCSCCc2ccccn2)cc1OC |
| < 0.2 | Cc1ccc(NC(=O)c2ccccc2NC(=O)c2cccnc2)cc1 |
| 10.5 (≈ 41.5 µM) | N#Cc1ccccc1COC(=O)c1cccnc1N |
| 47.1 (≈ 150 µM) | Cc1ccc(NC2CCCN(C(=O)c3cccs3)C2)cc1C (stereo unspecified) |
| < 0.6 | CCOc1ccc(N/C=C/C(=O)c2ccc(OC)cc2)cc1 |
| > 41.8 | CCC(C)Nc1nc(-c2ccccn2)nc2ccccc12 (stereo unspecified) |
| 2.1 (≈ 5.86 µM) | CC(=O)Nc1ccc(NC(=O)CC(c2ccccc2)c2ccccc2)cc1 |
| 4 (≈ 18.6 µM) | Nc1ccccc1SCc1ccccc1 |
| 40.5 (≈ 139 µM) | COc1cc(C)ccc1OCC(=O)NC1CCCCCC1 |
| 12.8 (≈ 47.9 µM) | Cc1cccc(C)c1NC(=O)CC(C)c1ccccc1 (stereo unspecified) |
| < 0.7 | COc1ccc(NC(=O)c2ccc(F)c(F)c2)c2ccccc12 |
| 10.8 (≈ 35.1 µM) | CCOC(=O)c1nc(Nc2cccc(C)c2)c2ccccc2n1 |
| 15.6 (≈ 42.6 µM) | O=C(Nc1cccc(S(=O)(=O)N2CCCC2)c1)c1ccc(Cl)nc1 |
| 9.3 (≈ 37.7 µM) | Cc1ccc(NC(=O)c2ccc(Cl)nc2)cc1 |
| 48.2 | COc1cc(CNCc2ccccc2)cc(Cl)c1OC.Cl |

| solubility kinetic [µg/mL] | Compound |
| --- | --- |
| > 37.1 | O=C(NCC(O)c1ccccc1)c1cccs1 (stereo unspecified) |
| > 48.2 | O=C(O)c1ccc([N+](=O)[O-])c(CS(=O)(=O)c2ccccc2)c1 |
| 36.8 (≈ 132 µM) | Cc1ccc2oc(=O)c(/C=C(\O)c3ccccc3)nc2c1 |
| > 40.6 | CC(C)(C)OC(=O)NCCNC(=O)c1cccs1 |
| > 43.1 | Cc1nc2ccccc2c(=O)n1CCCN1CCOCC1 |
| 2.6 (≈ 8.24 µM) | COc1ccc2oc(=O)c(C(=O)NC3CCCCCC3)cc2c1 |
| > 53 | CC(OC(=O)Cc1c[nH]c2ccccc12)C(=O)NC1(C#N)CCCCC1 (stereo unspecified) |
| > 35.9 | N#Cc1c(Nc2ccccc2)c(C=O)c[nH]c1=O |
| > 49.1 | CC1CN(CC(=O)Nc2ccc(S(N)(=O)=O)cc2)CC(C)O1 (stereo unspecified) |
| > 51.2 | NS(=O)(=O)c1ccc(NC(=O)CCC(=O)N2CCOCC2)cc1 |
| 1.1 (≈ 4.23 µM) | COC(=O)c1ccccc1NC(=O)c1cc(C)no1 |
| > 48.7 | Cc1c(C(=O)C(=O)NCCCn2ccnc2)c2ccccc2n1C |
| > 46.6 | O=S(=O)(NC(=S)Nc1ccccc1)c1ccc(F)cc1 |
| < 0.3 | O=[N+]([O-])c1ccccc1NCc1ccccc1Cl |
| 3.7 (≈ 11.4 µM) | O=C(COC(=O)c1ccc(N2CCCC2=O)cc1)c1ccccc1 |
| 16 (≈ 56.9 µM) | CN(C)/C=N/c1nc(-c2ccc3ccccc3c2)cs1 |
| > 49.4 | CCCn1c(=O)cc(N)n(-c2ccc(OC(F)(F)F)cc2)c1=O |
| > 36.5 | O=C([O-])c1ncc(Cl)c(Cl)c1Cl.[NH4+] |
| 41.8 (≈ 125 µM) | O=C(OC(C(=O)NCc1ccccc1)c1ccccc1)c1ccco1 (stereo unspecified) |
| 40.2 (≈ 149 µM) | Cc1ccc(C)c(NC(=S)NCc2ccccc2)c1 |

| Compound | solubility kinetic [µg/mL] |
| --- | --- |
| CCC(=O)c1ccc(OCC(=O)N2CCN(CC(=O)Nc3ccccc3C(F)(F)F)CC2)cc1 | > 71.6 |

— PubChem BioAssay AID1996
